Reference: publication PMC9539459 (Virology, 2022)
“Also recorded” adds a separate entry of the source. Where two headings read alike, the source gives them in different places.

Tests used:
[1] = system: SARS-CoV-2; assay type: cell-based
[2] = system: SARS-CoV-2; experiment: Cell-based antiviral drug testing in Vero-E6 cells; conditions: for antiviral activity (in words): top 9 screened compounds, Vero-E6, percent inhibition, SRB assay

| Structure (SMILES) | inhibition of viral particle production (in words) [1] | antiviral activity (in words) [2] | reduction of infectious virus production [1] | inhibition of viral particle production (in words) ([1]; listed as darglitazone sodium) | EC50 [2] [µM] |
| --- | --- | --- | --- | --- | --- |
| C/C=C(/C)C(=O)OC(C)(C)[C@@H]1Cc2c(ccc3ccc(=O)oc23)O1 [Columbianadin] | inhibit production of SARS-CoV-2 | substantial antiviral activity | – | – | – |
| Cc1oc(-c2ccccc2)nc1CCC(=O)c1ccc(CC2SC(=O)NC2=O)cc1 (stereo not shown) [Darglitazone Sodium] | greater anti-SARS-CoV-2 activity | substantial antiviral activity | over 3 orders of magnitude | inhibit production of SARS-CoV-2 | < 10 |
| CNC(=O)c1ccc(-c2cnc3ncc(Cc4ccc5ncccc5c4)n3n2)cc1F [INCB28060] | inhibit production of SARS-CoV-2; also recorded: greater anti-SARS-CoV-2 activity | best antiviral activity; also recorded: substantial antiviral activity | over 3 orders of magnitude | – | – |
